One test has as its target IDH1 R132H enzyme (Homo sapiens (Human), UniProt O75874, R132H). Nature of the test: Mutant IDH1 R132H biochemical assay. Also: 1.5 nM enzyme. The following applies: NADPH consumption, luminescent readout, 250 μM α-KG, 1 μM NADPH, 32° C., 30 minutes, test range 0.002-10 μM. The protocol: mIDH1 catalyzes the NADPH-dependent reduction of alpha-ketoglutarate (α-KG) to (2R)-2-hydroxyglutarate (2-HG). NADPH consumption was measured by luminescent readout.
The biochemical reactions were performed at 32° C. in 384-well plates using a reaction volume of 41 μl and the following assay buffer conditions: 50 mM Tris pH 7.5, 100 mM NaCl, 20 mM MgCl2, 0.05% BSA, 0.01% Brij, 1 μM NADPH, and 250 μM α-KG. […] Test compounds were used in a concentration range between 0.002 and 10 μM. The final DMSO concentration was 2.4%.
The reaction was incubated for 30 minutes, then 40 μl of detection mix (0.75 μg/ml Luciferase, 0.02 U/ml Oxidoreductase, 4 μg/ml FMN, 2 μl/ml Decanal/Ethanol, 50 mM Tris pH 7.5, 0.5% Glycerin, 0.01% Tween-20, 0.05% BSA) was added. Luminescence was measured on a luminescent reader (10 seconds measuring time, 1 second integration period, 30% sensitivity). The decrease in luminescence is proportional to mIDH1 activity. IC50 values are determined by interpolation from plots of relative luminescence versus inhibitor concentration.

Test [1] deals with LN229 R132H cells overexpressing mutated isocitrate dehydrogenase (mIDH). In words: Mutant IDH1 cellular assay (2-HG levels in medium). The format is cell-based. The following applies: 2-HG in medium of LN229 R132H cells, 24 hours incubation, fluorescence readout. The protocol: Mutant IDH1 Cellular Assay
Levels of (2R)-2-hydroxyglutarate (2HG) were measured in medium of a cell line with overexpression of mutated isocitrate dehydrogenase (mIDH) protein. mIDH catalyzes the NADPH-dependent reduction of alpha-ketoglutarate to 2-HG. Cells (LN229 R132H, Mohrenz et al., Apoptosis (2013) 18:1416-1425) were grown in DMEM containing 10% FCS. They were harvested by trypsin and seeded into 96-well plates. Cells were incubated overnight at 37° C. in 5% CO2. The next day test compounds were added to each cell well. The final concentration of DMSO was 0.1% and DMSO controls were included. The plates were then placed in an incubator for 24 hours.
2-HG was measured according to Balss et al. (Acta Neuropathol (2012) 124: 883-891). Briefly, HClO4 was added to each well and the plates were centrifuged. Aliquots are removed and incubated with hydroxyglutarate dehydrogenase (HGDH), diaphorase, NAD+, and resazurin. The conversion of resazurin to resorufin was detected by fluorescence spectroscopy at Ex 540 nm Em 600 nm. The increase in fluorescence is proportional to 2-HG production. IC50 values are determined by interpolation from plots of relative fluorescence vs inhibitor concentration.

The structures appear in SMILES notation.

IDH1 R132H enzyme, sequence (O75874 whole entry R132H): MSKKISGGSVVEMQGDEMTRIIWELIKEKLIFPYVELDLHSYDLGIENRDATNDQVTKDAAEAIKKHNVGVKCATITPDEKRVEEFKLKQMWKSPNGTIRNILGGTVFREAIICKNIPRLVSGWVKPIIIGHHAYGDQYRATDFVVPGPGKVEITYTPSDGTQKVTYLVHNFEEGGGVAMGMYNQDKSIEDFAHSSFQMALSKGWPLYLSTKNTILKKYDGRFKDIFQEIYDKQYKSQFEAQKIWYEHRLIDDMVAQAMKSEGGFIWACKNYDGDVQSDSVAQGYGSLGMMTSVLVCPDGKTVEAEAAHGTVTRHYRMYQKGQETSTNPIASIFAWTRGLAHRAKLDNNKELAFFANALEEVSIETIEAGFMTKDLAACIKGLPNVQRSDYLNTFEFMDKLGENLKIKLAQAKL

On to `C[C@@H]1C[C@H](n2c(Nc3ccc(OC(F)(F)F)cc3)nc3ccc(C(=O)N(C)C)cc32)CC(C)(C)C1` (single isomer, unassigned; enantiomer b) [Example 2-20-2, (±) N,N-dimethyl-2-{[4-(trifluoromethoxy)phenyl]amino}-1-[(cis)-3,3,5-trimethylcyclohexyl]-1H-benzimidazole-6-carboxamide, enantiomer B], for which the 50% inhibitory concentration (IC50) – broadly, the concentration needed to halve the response being measured – on IDH1 R132H enzyme is 200 nM; in test [1], 4300 nM. As to `COC(=O)CN(C)C(=O)c1ccc2nc(Nc3ccc(OC(F)(F)F)cc3)n([C@H]3C[C@@H](C)CC(C)(C)C3)c2c1` (racemic) [Example 2-9, (±) methyl N-methyl-N-[(2-{[4-(trifluoromethoxy)phenyl]amino}-1-[(cis)-3,3,5-trimethylcyclohexyl]-1H-benzimidazol-6-yl)carbonyl]glycinate], the IC50 against IDH1 R132H enzyme worked out at 250 nM; in test [1] (Homo sapiens, LN-229, 24 h), 9000 nM. For `C[C@@H]1C[C@H](n2c(Nc3ccc(OC(F)(F)F)cc3)nc3ccc(C(=O)N(C)C)cc32)CC(C)(C)C1` (racemic) [Example 2-20, (±) N,N-dimethyl-2-{[4-(trifluoromethoxy)phenyl]amino}-1-[(cis)-3,3,5-trimethylcyclohexyl]-1H-benzimidazole-6-carboxamide], the IC50 against IDH1 R132H enzyme was found to be 100 nM; in test [1] (Homo sapiens, LN-229, 24 h), 2000 nM.

`C[C@@H]1C[C@H](n2c(Nc3ccc(OC(F)(F)F)cc3)nc3ccc(C(=O)N4CCOCC4)cc32)CC(C)(C)C1` (single isomer, unassigned; enantiomer a) [Example 2-16-1, morpholin-4-yl(2-{[4-(trifluoromethoxy)phenyl]amino}-1-[(cis)-3,3,5-trimethylcyclohexyl]-1H-benzimidazol-6-yl)methanone, enantiomer A] showed an IC50 in test [1] of 500 nM. On to `COC(=O)c1ccc2nc(Nc3ccc(OC(F)(F)F)cc3)n([C@H]3C[C@H](C)CC(C)(C)C3)c2c1` (racemic) [Example 2-2, (±) methyl 2-{[4-(trifluoromethoxy)phenyl]amino}-1-[(trans)-3,3,5-trimethylcyclohexyl]-1H-benzimidazole-6-carboxylate], for which the concentration for half-maximal inhibition (IC50) in test [1] (Homo sapiens, LN-229, 24 h) is 10000 nM. As to `C[C@@H]1C[C@H](n2c(Nc3ccc(OC(F)(F)F)cc3)nc3ccc(C(=O)N(C)C)cc32)CC(C)(C)C1` (single isomer, unassigned; enantiomer a) [Example 2-20-1, (±) N,N-dimethyl-2-{[4-(trifluoromethoxy)phenyl]amino}-1-[(cis)-3,3,5-trimethylcyclohexyl]-1H-benzimidazole-6-carboxamide, enantiomer A], the values for the concentration for half-maximal inhibition (IC50) (on IDH1 R132H enzyme; in test [1]) were 80 nM and 1800 nM, respectively.
